Data reported in PubChem BioAssay (NCI).
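Briefly, cells in 96-well plates were exposed to five compound concentrations for 48 h, and endpoints were estimated by linear interpolation. TGI is the concentration that stops growth completely.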

Tests used:
Assay in all cases: NCI anticancer screen, dose series, 48 h
NCI-H460 lung = system: NCI-H460 lung
UO-31 renal = system: UO-31 renal
M14 melanoma = system: M14 melanoma
A549 NSCLC = system: A549 NSCLC
MALME-3M melanoma = system: MALME-3M melanoma
SF-268 CNS = system: SF-268 CNS
IGROV1 ovarian = system: IGROV1 ovarian
T-47D breast = system: T-47D breast
HCT-15 colon = system: HCT-15 colon
HT29 colon = system: HT29 colon
SNB-19 CNS = system: SNB-19 CNS
COLO 205 colon = system: COLO 205 colon
HCT-116 colon = system: HCT-116 colon
CCRF-CEM leukemia = system: CCRF-CEM leukemia
SK-MEL-5 melanoma = system: SK-MEL-5 melanoma
MDA-N = system: MDA-N
NCI-H226 lung = system: NCI-H226 lung
BT-549 breast = system: BT-549 breast
U251 CNS = system: U251 CNS
HOP-92 NSCLC = system: HOP-92 NSCLC
786-0 renal = system: 786-0 renal
SF-539 CNS = system: SF-539 CNS
UACC-257 melanoma = system: UACC-257 melanoma
RXF 393 renal = system: RXF 393 renal
HCC-2998 colon = system: HCC-2998 colon
SR leukemia = system: SR leukemia
MCF7 breast = system: MCF7 breast
NCI-H23 lung = system: NCI-H23 lung
NCI-H522 lung = system: NCI-H522 lung
ACHN renal = system: ACHN renal
SF-295 CNS = system: SF-295 CNS
DU-145 prostate = system: DU-145 prostate
UACC-62 melanoma = system: UACC-62 melanoma
MDA-MB-435 = system: MDA-MB-435
SK-MEL-28 melanoma = system: SK-MEL-28 melanoma
HL-60(TB) leukemia = system: HL-60(TB) leukemia
KM12 colon = system: KM12 colon
MDA-MB-231 breast = system: MDA-MB-231 breast
SN12C renal = system: SN12C renal
SK-MEL-2 melanoma = system: SK-MEL-2 melanoma
PC-3 prostate = system: PC-3 prostate
CAKI-1 renal = system: CAKI-1 renal
SNB-75 CNS = system: SNB-75 CNS
OVCAR-5 ovarian = system: OVCAR-5 ovarian
NCI/ADR-RES ovarian = system: NCI/ADR-RES ovarian
TK-10 renal = system: TK-10 renal
OVCAR-3 ovarian = system: OVCAR-3 ovarian
SW-620 colon = system: SW-620 colon
A498 renal = system: A498 renal
OVCAR-8 ovarian = system: OVCAR-8 ovarian
OVCAR-4 ovarian = system: OVCAR-4 ovarian
RPMI-8226 leukemia = system: RPMI-8226 leukemia
K-562 leukemia = system: K-562 leukemia
MOLT-4 leukemia = system: MOLT-4 leukemia
HOP-62 NSCLC = system: HOP-62 NSCLC
SK-OV-3 ovarian = system: SK-OV-3 ovarian
HS 578T breast = system: HS 578T breast
LOX IMVI melanoma = system: LOX IMVI melanoma
EKVX NSCLC = system: EKVX NSCLC

## O=S(=O)(c1ccccc1)N1CCCC(c2ccccc2)CC1 (configuration not stated)
NCI-H460 lung
  TGI: > 100 µM
UO-31 renal
  TGI: > 100 µM
M14 melanoma
  TGI: > 100 µM
A549 NSCLC
  TGI: > 100 µM
MALME-3M melanoma
  TGI: > 100 µM
SF-268 CNS
  TGI: > 100 µM
IGROV1 ovarian
  TGI: > 100 µM
T-47D breast
  TGI: > 100 µM
HCT-15 colon
  TGI: > 100 µM
HT29 colon
  TGI: 42 µM
SNB-19 CNS
  TGI: > 100 µM
COLO 205 colon
  TGI: > 100 µM
HCT-116 colon
  TGI: > 100 µM
CCRF-CEM leukemia
  TGI: > 100 µM
SK-MEL-5 melanoma
  TGI: 28.9 µM
MDA-N
  TGI: > 100 µM
NCI-H226 lung
  TGI: > 100 µM
BT-549 breast
  TGI: > 100 µM
U251 CNS
  TGI: > 100 µM
HOP-92 NSCLC
  TGI: > 100 µM
786-0 renal
  TGI: > 100 µM
SF-539 CNS
  TGI: > 100 µM
UACC-257 melanoma
  TGI: > 100 µM
RXF 393 renal
  TGI: > 100 µM
HCC-2998 colon
  TGI: 61.3 µM
SR leukemia
  TGI: > 100 µM
MCF7 breast
  TGI: 53.7 µM
NCI-H23 lung
  TGI: > 100 µM
NCI-H522 lung
  TGI: > 100 µM
ACHN renal
  TGI: > 100 µM
SF-295 CNS
  TGI: > 100 µM
DU-145 prostate
  TGI: > 100 µM
UACC-62 melanoma
  TGI: > 100 µM
MDA-MB-435
  TGI: > 100 µM
SK-MEL-28 melanoma
  TGI: > 100 µM
HL-60(TB) leukemia
  TGI: 29.9 µM
KM12 colon
  TGI: > 100 µM
MDA-MB-231 breast
  TGI: > 100 µM
SN12C renal
  TGI: > 100 µM
SK-MEL-2 melanoma
  TGI: > 100 µM
PC-3 prostate
  TGI: > 100 µM
CAKI-1 renal
  TGI: > 100 µM
SNB-75 CNS
  TGI: 94.6 µM
OVCAR-5 ovarian
  TGI: > 100 µM
NCI/ADR-RES ovarian
  TGI: > 100 µM
TK-10 renal
  TGI: > 100 µM
OVCAR-3 ovarian
  TGI: > 100 µM
SW-620 colon
  TGI: > 100 µM
A498 renal
  TGI: > 100 µM
OVCAR-8 ovarian
  TGI: > 100 µM
OVCAR-4 ovarian
  TGI: > 100 µM
RPMI-8226 leukemia
  TGI: 49.8 µM
K-562 leukemia
  TGI: > 100 µM
MOLT-4 leukemia
  TGI: 69.1 µM

## CCOC(=O)C(C)c1nc2cc(F)c(F)cc2[nH]c1=O (configuration not stated)
NCI-H460 lung
  TGI: > 100 µM
UO-31 renal
  TGI: > 100 µM
M14 melanoma
  TGI: > 100 µM
A549 NSCLC
  TGI: > 100 µM
MALME-3M melanoma
  TGI: > 100 µM
SF-268 CNS
  TGI: > 100 µM
T-47D breast
  TGI: > 100 µM
HCT-15 colon
  TGI: > 100 µM
HT29 colon
  TGI: > 100 µM
SNB-19 CNS
  TGI: > 100 µM
COLO 205 colon
  TGI: > 100 µM
HCT-116 colon
  TGI: > 100 µM
HOP-62 NSCLC
  TGI: > 100 µM
CCRF-CEM leukemia
  TGI: > 100 µM
SK-MEL-5 melanoma
  TGI: > 100 µM
MDA-N
  TGI: > 100 µM
NCI-H226 lung
  TGI: > 100 µM
BT-549 breast
  TGI: > 100 µM
U251 CNS
  TGI: > 100 µM
SK-OV-3 ovarian
  TGI: > 100 µM
HOP-92 NSCLC
  TGI: > 100 µM
786-0 renal
  TGI: > 100 µM
SF-539 CNS
  TGI: > 100 µM
UACC-257 melanoma
  TGI: > 100 µM
RXF 393 renal
  TGI: > 100 µM
HCC-2998 colon
  TGI: > 100 µM
HS 578T breast
  TGI: > 100 µM
MCF7 breast
  TGI: > 100 µM
NCI-H23 lung
  TGI: > 100 µM
ACHN renal
  TGI: > 100 µM
SF-295 CNS
  TGI: > 100 µM
DU-145 prostate
  TGI: > 100 µM
UACC-62 melanoma
  TGI: > 100 µM
MDA-MB-435
  TGI: > 100 µM
SK-MEL-28 melanoma
  TGI: > 100 µM
HL-60(TB) leukemia
  TGI: > 100 µM
KM12 colon
  TGI: > 100 µM
MDA-MB-231 breast
  TGI: > 100 µM
SN12C renal
  TGI: > 100 µM
LOX IMVI melanoma
  TGI: > 100 µM
SK-MEL-2 melanoma
  TGI: > 100 µM
PC-3 prostate
  TGI: > 100 µM
CAKI-1 renal
  TGI: > 100 µM
SNB-75 CNS
  TGI: > 100 µM
OVCAR-5 ovarian
  TGI: > 100 µM
EKVX NSCLC
  TGI: > 100 µM
NCI/ADR-RES ovarian
  TGI: > 100 µM
TK-10 renal
  TGI: > 100 µM
OVCAR-3 ovarian
  TGI: > 100 µM
SW-620 colon
  TGI: > 100 µM
OVCAR-8 ovarian
  TGI: > 100 µM
OVCAR-4 ovarian
  TGI: > 100 µM
RPMI-8226 leukemia
  TGI: > 100 µM
K-562 leukemia
  TGI: > 100 µM
MOLT-4 leukemia
  TGI: > 100 µM

## O=C(C[N+]12CN3CN(CN(C3)C1)C2)c1ccc(-c2ccccc2)cc1
NCI-H460 lung
  TGI: 30.9 µM
UO-31 renal
  TGI: 61.8 µM
M14 melanoma
  TGI: 49.5 µM
A549 NSCLC
  TGI: > 100 µM
MALME-3M melanoma
  TGI: 39.3 µM
SF-268 CNS
  TGI: 39.4 µM
IGROV1 ovarian
  TGI: 66.5 µM
T-47D breast
  TGI: > 100 µM
HCT-15 colon
  TGI: 86.3 µM
HT29 colon
  TGI: 48.4 µM
SNB-19 CNS
  TGI: 57.5 µM
HCT-116 colon
  TGI: 35.7 µM
HOP-62 NSCLC
  TGI: 55.4 µM
CCRF-CEM leukemia
  TGI: 5.37 µM
SK-MEL-5 melanoma
  TGI: 30.4 µM
MDA-N
  TGI: 42.8 µM
NCI-H226 lung
  TGI: 49.3 µM
BT-549 breast
  TGI: 71.7 µM
U251 CNS
  TGI: 32.2 µM
HOP-92 NSCLC
  TGI: > 100 µM
786-0 renal
  TGI: 45.9 µM
UACC-257 melanoma
  TGI: 29.8 µM
RXF 393 renal
  TGI: 37.7 µM
HCC-2998 colon
  TGI: 28.9 µM
HS 578T breast
  TGI: > 100 µM
SR leukemia
  TGI: 12.2 µM
NCI-H23 lung
  TGI: 53.5 µM
NCI-H522 lung
  TGI: 38.2 µM
ACHN renal
  TGI: 52.9 µM
SF-295 CNS
  TGI: 43.6 µM
DU-145 prostate
  TGI: 40 µM
UACC-62 melanoma
  TGI: 29.9 µM
MDA-MB-435
  TGI: > 100 µM
SK-MEL-28 melanoma
  TGI: 37 µM
KM12 colon
  TGI: 90.3 µM
MDA-MB-231 breast
  TGI: 34.3 µM
SN12C renal
  TGI: 45.1 µM
LOX IMVI melanoma
  TGI: 30.6 µM
SK-MEL-2 melanoma
  TGI: 35.2 µM
PC-3 prostate
  TGI: 34 µM
CAKI-1 renal
  TGI: > 100 µM
SNB-75 CNS
  TGI: 38.6 µM
OVCAR-5 ovarian
  TGI: 37.6 µM
EKVX NSCLC
  TGI: 44.9 µM
NCI/ADR-RES ovarian
  TGI: 89.4 µM
TK-10 renal
  TGI: 47.3 µM
OVCAR-3 ovarian
  TGI: 78.6 µM
SW-620 colon
  TGI: 30 µM
A498 renal
  TGI: 44.4 µM
OVCAR-8 ovarian
  TGI: > 100 µM
OVCAR-4 ovarian
  TGI: > 100 µM
K-562 leukemia
  TGI: 33.7 µM
MOLT-4 leukemia
  TGI: 42.9 µM
